# Counter-ions that a name gives are not always drawn.
# Target: T1, human MCH-1R (Homo sapiens, UniProt Q99705)
# T1 construct: expressed in transfected cells; host or cells: CHO-K1 (American Type Culture Collection), membrane preparation
# Assay: MCH binding inhibition assay ([125I]MCH, membranes of CHO-K1 cells expressing MCH-1R)
# Details: 50 pM [125I]MCH, 25° C., 1 hour; read-out: 50% Inhibitory Concentration against MCH-Binding, IC50
# Procedure: cDNA sequence encoding human MCH-1R [FEBS Letters, 398:253(1996), Biochimica et Biophisica Acta, 1401: 216(1998)] was cloned into plasmid vector pEF/mic/cyto (Invitrogen). The expression vector so obtained was transfected into host cells CHO-K1 (American Type Culture Collection) by using Lipofectamine Plus Reagent (Life Technologies) to give MCH-1R expressing cells.
# Membrane preparation generated from the cells expressing MCH-1R was incubated together with a test compound and 50 pM [^125I]MCH (NEN) in assay buffer (50 mM Tris buffer, pH7.4, containing 10 mM magnesium chloride, 2 mM ethylenediaminetetraacetic acid, 0.01% Bacitracin and 0.2% bovine serum albumin) at 25° C. for 1 hour, then filtered through a glass filter GF/C (Whatman). After washing the glass filter with 50 mM Tris buffer, pH7.4, containing 10 mM magnesium chloride, 2 mM ethylenediaminetetraacetic acid and 0.04% Tween-20, radioactivity on the glass filter was measured. Nonspecific binding was measured in the presence of 1 μM human MCH and a 50% inhibitory concentration (IC50) of the test compound against specific [^125I]MCH-binding was determined.
# T1 sequence (Q99705 whole entry): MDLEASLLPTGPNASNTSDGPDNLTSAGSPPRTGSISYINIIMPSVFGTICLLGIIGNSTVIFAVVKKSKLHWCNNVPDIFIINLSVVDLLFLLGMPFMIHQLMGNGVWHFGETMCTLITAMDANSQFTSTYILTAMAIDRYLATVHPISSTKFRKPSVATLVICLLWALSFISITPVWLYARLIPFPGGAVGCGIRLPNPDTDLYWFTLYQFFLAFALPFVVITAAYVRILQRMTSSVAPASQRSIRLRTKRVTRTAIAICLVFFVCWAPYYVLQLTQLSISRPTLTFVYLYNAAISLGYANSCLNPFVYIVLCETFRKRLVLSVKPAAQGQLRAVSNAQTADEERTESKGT
row,IC50,SMILES
1,5.8 nM,"CC(C)N(C)c1nc2ccc(NC(=O)CCc3ccc(C(F)(F)F)cc3)cc2[nH]1 [Example 1, N-{2-[isopropyl(methyl)amino]-1H-benzimidazol-6-yl}-3-[4-(trifluoromethyl)phenyl]propanamide]"
2,6.2 nM,"COc1ccc(-c2ccc(C(=O)Nc3ccc4nc(N(C)C(C)C)[nH]c4c3)cc2)cn1 [Example 17, N-{2-[isopropyl(methyl)amino]-1H-benzimidazol-6-yl}-4-(6-methoxy-3-pyridinyl)benzamide]"
3,3.3 nM,"CC(C)N(C)c1nc2ccc(NC(=O)c3cnc(-c4ccc(F)cc4)cn3)cc2[nH]1 [Example 24, 5-(4-Fluorophenyl)-N-{2-[isopropyl(methyl)amino]-1H-benzimidazol-6-yl}-2-pyrazinecarboxamide hydrochloride]"

# — patent publication US7541477B2, “Antagonists to melanin-concentrating hormone receptor comprising benzimidazole derivative as active ingredient” (Banyu Pharmaceutical Co., Ltd., priority 2002, dated 2009)
